Measured values: ChEMBL document CHEMBL1147949, “Potent anti-obese principle from Rosa canina: structural requirements and mode of action of trans-tiliroside” (2007)
Values joined by “and” are separate entries in the source; they are usually repeats but may differ in a detail not shown here. Equal entries are not always repeated. Active and inactive are the calls of the source. No cut-off for these calls is given here.

Experiments:
Mus musculus [1] = test: Reduction of paranephric fat in ddY mouse at 10 mg/kg/day, po after 14 to 15 days; assay type: functional
Mus musculus [2] = test: Effect on liver triglyceride in ddY mouse at 10 mg/kg/day, po after 14 to 15 days; assay type: functional
Mus musculus [3] = test: Reduction of mesenteric fat in ddY mouse at 10 mg/kg/day, po after 14 to 15 days; assay type: functional
Mus musculus [4] = test: Effect on D-glucose level in ddY mouse plasma at 0.1 to 10 mg/kg/day for 15 days; assay type: functional
Mus musculus [5] = test: Reduction of visceral fat in ddY mouse at 10 mg/kg/day, po after 14 to 15 days; assay type: functional
Mus musculus [6] = test: Reduction of epididymal fat in ddY mouse at 10 mg/kg/day, po after 14 to 15 days; assay type: functional
Mus musculus [7] = test: Effect on food intake in ddY mouse at 10 mg/kg/day, po after 14 to 15 days; assay type: functional
Mus musculus [8] = test: Effect on total plasma cholesterol in ddY mouse at 10 mg/kg/day, po after 14 to 15 days; assay type: functional
Mus musculus [9] = test: Effect on liver weight in ddY mouse at 10 mg/kg/day, po after 14 to 15 days; assay type: functional
Mus musculus [10] = test: Effect on plasma triglyceride in ddY mouse at 10 mg/kg/day, po after 14 to 15 days; assay type: functional
Mus musculus [11] = test: Effect on free fatty acid in ddY mouse plasma at 10 mg/kg/day, po after 14 to 15 days; assay type: functional
Mus musculus [12] = test: Reduction of mesenteric fat in ddY mouse at 25 mg/kg/day, po after 14 to 15 days; assay type: functional
Mus musculus [13] = test: Reduction of paranephric fat in ddY mouse at 0.1 mg/kg/day, po after 14 to 15 days; assay type: functional
Mus musculus [14] = test: Reduction of visceral fat in ddY mouse at 12.5 mg/kg/day, po after 14 to 15 days; assay type: functional
Mus musculus [15] = test: Effect on plasma triglyceride in ddY mouse at 0.1 mg/kg/day, po after 14 to 15 days; assay type: functional
Mus musculus [16] = test: Effect on plasma triglyceride in ddY mouse at 50 mg/kg/day, po after 14 to 15 days; assay type: functional
Mus musculus [17] = test: Effect on total plasma cholesterol in ddY mouse at 50 mg/kg/day, po after 14 to 15 days; assay type: functional
Mus musculus [18] = test: Effect on free fatty acid in ddY mouse plasma at 50 mg/kg/day, po after 14 to 15 days; assay type: functional
Mus musculus [19] = test: Effect on liver weight in ddY mouse at 0.1 mg/kg/day, po after 14 to 15 days; assay type: functional
Mus musculus [20] = test: Reduction of epididymal fat in ddY mouse at 12.5 mg/kg/day, po after 14 to 15 days; assay type: functional
Mus musculus [21] = test: Reduction of epididymal fat in ddY mouse at 0.1 mg/kg/day, po after 14 to 15 days; assay type: functional
Mus musculus [22] = test: Reduction of paranephric fat in ddY mouse at 12.5 mg/kg/day, po after 14 to 15 days; assay type: functional
Mus musculus [23] = test: Effect on plasma triglyceride in ddY mouse at 12.5 mg/kg/day, po after 14 to 15 days; assay type: functional
Mus musculus [24] = test: Effect on food intake in ddY mouse at 12.5 mg/kg/day, po after 14 to 15 days; assay type: functional
Mus musculus [25] = test: Effect on plasma triglyceride in ddY mouse at 1 mg/kg/day, po after 14 to 15 days; assay type: functional
Mus musculus [26] = test: Effect on liver triglyceride in ddY mouse at 50 mg/kg/day, po after 14 to 15 days; assay type: functional
Mus musculus [27] = test: Reduction of visceral fat in ddY mouse at 50 mg/kg/day, po after 14 to 15 days; assay type: functional
Mus musculus [28] = test: Effect on total plasma cholesterol in ddY mouse at 12.5 mg/kg/day, po after 14 to 15 days; assay type: functional
Mus musculus [29] = test: Effect on liver triglyceride in ddY mouse at 0.1 mg/kg/day, po after 14 to 15 days; assay type: functional
Mus musculus [30] = test: Effect on liver triglyceride in ddY mouse at 1 mg/kg/day, po after 14 to 15 days; assay type: functional
Mus musculus [31] = test: Effect on free fatty acid in ddY mouse plasma at 1 mg/kg/day, po after 14 to 15 days; assay type: functional
Mus musculus [32] = test: Reduction of visceral fat in ddY mouse at 0.1 mg/kg/day, po after 14 to 15 days; assay type: functional
Mus musculus [33] = test: Effect on liver weight in ddY mouse at 1 mg/kg/day, po after 14 to 15 days; assay type: functional
Mus musculus [34] = test: Reduction of paranephric fat in ddY mouse at 50 mg/kg/day, po after 14 to 15 days; assay type: functional
Mus musculus [35] = test: Reduction of mesenteric fat in ddY mouse at mg/kg/day, po after 14 to 15 days; assay type: functional
Mus musculus [36] = test: Effect on free fatty acid in ddY mouse plasma at 0.1 mg/kg/day, po after 14 to 15 days; assay type: functional
Mus musculus [37] = test: Effect on food intake in ddY mouse at 25 mg/kg/day, po after 14 to 15 days; assay type: functional
Mus musculus [38] = test: Reduction of mesenteric fat in ddY mouse at 50 mg/kg/day, po after 14 to 15 days; assay type: functional
Mus musculus [39] = test: Reduction of mesenteric fat in ddY mouse at 0.1 mg/kg/day, po after 14 to 15 days; assay type: functional
Mus musculus [40] = test: Reduction of visceral fat in ddY mouse at 25 mg/kg/day, po after 14 to 15 days; assay type: functional
Mus musculus [41] = test: Effect on food intake in ddY mouse at 0.1 mg/kg/day, po after 14 to 15 days; assay type: functional
Mus musculus [42] = test: Reduction of epididymal fat in ddY mouse at 25 mg/kg/day, po after 14 to 15 days; assay type: functional
Mus musculus [43] = test: Effect on food intake in ddY mouse at 1 mg/kg/day, po after 14 to 15 days; assay type: functional
Mus musculus [44] = test: Effect on food intake in ddY mouse at 50 mg/kg/day, po after 14 to 15 days; assay type: functional
Mus musculus [45] = test: Effect on liver triglyceride in ddY mouse at 12.5 mg/kg/day, po after 14 to 15 days; assay type: functional
Mus musculus [46] = test: Effect on liver weight in ddY mouse at 12.5 mg/kg/day, po after 14 to 15 days; assay type: functional
Mus musculus [47] = test: Reduction of epididymal fat in ddY mouse at 1 mg/kg/day, po after 14 to 15 days; assay type: functional
Mus musculus [48] = test: Effect on liver weight in ddY mouse at 50 mg/kg/day, po after 14 to 15 days; assay type: functional
Liver = test: Increase in expression of PPAR alpha mRNA level in liver tissue of orally dosed ddY mouse, after 24 hrs; assay type: functional, organism-based
Mus musculus [49] = test: Effect on total plasma cholesterol in ddY mouse at 0.1 mg/kg/day, po after 14 to 15 days; assay type: functional
Mus musculus [50] = test: Effect on total plasma cholesterol in ddY mouse at 1 mg/kg/day, po after 14 to 15 days; assay type: functional
Mus musculus [51] = test: Reduction of epididymal fat in ddY mouse at 50 mg/kg/day, po after 14 to 15 days; assay type: functional
Mus musculus [52] = test: Effect on liver weight in ddY mouse at 25 mg/kg/day, po after 14 to 15 days; assay type: functional
Mus musculus [53] = test: Effect on free fatty acid in ddY mouse plasma at 12.5 mg/kg/day, po after 14 to 15 days; assay type: functional
Mus musculus [54] = test: Reduction of paranephric fat in ddY mouse at 25 mg/kg/day, po after 14 to 15 days; assay type: functional
Mus musculus [55] = test: Reduction of visceral fat in ddY mouse at 1 mg/kg/day, po after 14 to 15 days; assay type: functional
Mus musculus [56] = test: Reduction of paranephric fat in ddY mouse at 1 mg/kg/day, po after 14 to 15 days; assay type: functional
Mus musculus [57] = test: Reduction of mesenteric fat in ddY mouse at 1 mg/kg/day, po after 14 to 15 days; assay type: functional

O=c1c(O[C@@H]2O[C@H](CO)[C@@H](O)[C@H](O)[C@H]2O)c(-c2ccc(O)cc2)oc2cc(O)cc(O)c12 [ASTRAGALIN]
Activity (Mus musculus [1]): 293 mg | Activity (Mus musculus [2]): 64.8 mg/g | Activity (Mus musculus [3]): 680 mg | Activity (Mus musculus [4]): 99 mg/dL | Activity (Mus musculus [5]): 1770 mg | Activity (Mus musculus [6]): 797 mg | Activity (Mus musculus [7]): 4.34 g/day | Activity (Mus musculus [8]): 119 mg/dL | Activity (Mus musculus [9]): 1640 mg | Activity (Mus musculus [10]): 113 mg/dL | Activity (Mus musculus [11]): 1.7 mEq/L

O=C(O)/C=C/c1ccc(O)cc1 [COUMARIC ACID]
Activity (Mus musculus [1]): 307 mg | Activity (Mus musculus [2]): 58.2 mg/g | Activity (Mus musculus [3]): 761 mg | Activity (Mus musculus [4]): 106 mg/dL | Activity (Mus musculus [5]): 1920 mg | Activity (Mus musculus [6]): 847 mg | Activity (Mus musculus [7]): 4.3 g/day | Activity (Mus musculus [8]): 143 mg/dL | Activity (Mus musculus [9]): 1640 mg | Activity (Mus musculus [10]): 162 mg/dL | Activity (Mus musculus [11]): 1.67 mEq/L

O=C(/C=C/c1ccc(O)cc1)OC[C@H]1O[C@@H](Oc2c(-c3ccc(O)cc3)oc3cc(O)cc(O)c3c2=O)[C@H](O)[C@@H](O)[C@@H]1O [TILIROSIDE]
Activity (Mus musculus [12]): 738 mg and 508 mg | Activity (Mus musculus [13]): 284 mg | Activity (Mus musculus [14]): 2240 mg | Activity (Mus musculus [1]): 132 mg and 266 mg | Activity (Mus musculus [15]): 119 mg/dL | Activity (Mus musculus [3]): 516 mg and 561 mg | Activity (Mus musculus [16]): 161 mg/dL | Activity (Mus musculus [17]): 144 mg/dL | Activity (Mus musculus [4]): 93 mg/dL | Activity (Mus musculus [18]): 1.44 mEq/L | Activity (Mus musculus [19]): 1490 mg | Activity (Mus musculus [20]): 1140 mg | Activity (Mus musculus [5]): 998 mg and 1450 mg | Activity (Mus musculus [21]): 716 mg | Activity (Mus musculus [22]): 350 mg | Activity (Mus musculus [23]): 169 mg/dL | Activity (Mus musculus [24]): 5.7 g/day | Activity (Mus musculus [25]): 95 mg/dL | Activity (Mus musculus [26]): 63.9 mg/g | Activity (Mus musculus [27]): 1950 mg | Activity (Mus musculus [28]): 156 mg/dL | Activity (Mus musculus [29]): 46.7 mg/g | Activity (Mus musculus [6]): 350 mg and 626 mg | Activity (Mus musculus [7]): 5.3 g/day and 4.22 g/day | Activity (Mus musculus [30]): 30.8 mg/g | Activity (Mus musculus [31]): 1.01 mEq/L | Activity (Mus musculus [32]): 1660 mg | Activity (Mus musculus [33]): 1390 mg | Activity (Mus musculus [34]): 330 mg | Activity (Mus musculus [35]): 745 mg | Activity (Mus musculus [36]): 1.17 mEq/L | Activity (Mus musculus [37]): 5 g/day and 5.4 g/day | Activity (Mus musculus [38]): 812 mg | Activity (Mus musculus [39]): 662 mg | Activity (Mus musculus [40]): 2050 mg and 1260 mg | Activity (Mus musculus [41]): 4.7 g/day | Activity (Mus musculus [42]): 918 mg and 558 mg | Activity (Mus musculus [9]): 1500 mg | Activity (Mus musculus [43]): 5 g/day | Activity (Mus musculus [44]): 5 g/day | Activity (Mus musculus [45]): 60.4 mg/g | Activity (Mus musculus [46]): 1590 mg | Activity (Mus musculus [47]): 407 mg | Activity (Mus musculus [48]): 1560 mg | Activity (Liver): Active | Activity (Mus musculus [49]): 108 mg/dL | Activity (Mus musculus [50]): 102 mg/dL | Activity (Mus musculus [51]): 811 mg | Activity (Mus musculus [52]): 1590 mg and 1680 mg | Activity (Mus musculus [53]): 1.5 mEq/L | Activity (Mus musculus [54]): 394 mg and 194 mg | Activity (Mus musculus [55]): 1060 mg | Activity (Mus musculus [56]): 141 mg | Activity (Mus musculus [57]): 509 mg

O=c1c(O)c(-c2ccc(O)cc2)oc2cc(O)cc(O)c12 [KAEMPFEROL]
Activity (Mus musculus [1]): 418 mg | Activity (Mus musculus [2]): 60.3 mg/g | Activity (Mus musculus [3]): 804 mg | Activity (Mus musculus [4]): 110 mg/dL | Activity (Mus musculus [5]): 2120 mg | Activity (Mus musculus [6]): 896 mg | Activity (Mus musculus [7]): 4.2 g/day | Activity (Mus musculus [8]): 149 mg/dL | Activity (Mus musculus [9]): 1520 mg | Activity (Mus musculus [10]): 139 mg/dL | Activity (Mus musculus [11]): 1.72 mEq/L
